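Grown in 96-well plates, cells were treated for 48 hours with each compound at five concentrations. Insufficient inhibition: endpoint recorded as highest concentration tested. GI50 = concentration required for 50% inhibition of growth.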 The source made the active and inactive calls. No stated cut-off is given here; in the data, active = GI50 up to about 1.1 µM and inactive = higher.
Legend:
Assay in all cases: growth of human tumour cells (NCI), 48 h
A549 = test system: A549
COLO 205 = test system: COLO 205
EKVX = test system: EKVX
HCT-15 = test system: HCT-15
HOP-62 = test system: HOP-62
K562 = test system: K562
M14 = test system: M14
NCI-H226 = test system: NCI-H226
NCI-H522 = test system: NCI-H522
OVCAR-3 = test system: OVCAR-3
OVCAR-5 = test system: OVCAR-5
OVCAR-8 = test system: OVCAR-8
SR = test system: SR
UACC-257 = test system: UACC-257
UO-31 = test system: UO-31
A498 = test system: A498

O=C(/C=C/c1ccccc1)Oc1cccc2cccnc12
GI50 (A549): 12.9 µM (inactive)
GI50 (COLO 205): 14.5 µM (inactive)
GI50 (EKVX): 6.65 µM (inactive)
GI50 (HCT-15): 6.17 µM
GI50 (HOP-62): 21.2 µM (inactive)
GI50 (K562): 3.85 µM (inactive)
GI50 (M14): 4.11 µM (inactive)
GI50 (NCI-H226): 26.7 µM (inactive)
GI50 (NCI-H522): 1.09 µM (active)
GI50 (OVCAR-3): 2.96 µM (inactive)
GI50 (OVCAR-5): 14.7 µM (inactive)
GI50 (OVCAR-8): 4.02 µM (inactive)
GI50 (SR): 1.57 µM (inactive)
GI50 (UACC-257): 2.88 µM (inactive)
GI50 (UO-31): 6.35 µM (inactive)

C#C[C@]1(O)CCC2C3CCc4cc(Oc5nc(F)nc(-n6c(C)nc7cc8ccccc8cc76)n5)ccc4C3CCC21C (stereo partly specified)
GI50 (A549): 41.5 µM (inactive)
GI50 (COLO 205): 20.6 µM (inactive)
GI50 (EKVX): 9.35 µM (inactive)
GI50 (HOP-62): 35.7 µM (inactive)
GI50 (K562): 34 µM (inactive)
GI50 (M14): 43.8 µM (inactive)
GI50 (NCI-H226): 47.8 µM (inactive)
GI50 (NCI-H522): 37.3 µM (inactive)
GI50 (OVCAR-3): 50.1 µM (inactive)
GI50 (OVCAR-8): 39.1 µM (inactive)
GI50 (UACC-257): 86.5 µM (inactive)
GI50 (UO-31): 75.2 µM (inactive)

CC(C)(C)N/N=C(\C(=O)Nc1cccc(Cl)c1)C1C(=O)Nc2ccccc2[S+]1[O-] (stereo unspecified)
GI50 (A549): > 100 µM (inactive)
GI50 (COLO 205): > 100 µM (inactive)
GI50 (EKVX): > 100 µM (inactive)
GI50 (HCT-15): > 100 µM
GI50 (HOP-62): > 100 µM (inactive)
GI50 (M14): > 100 µM (inactive)
GI50 (NCI-H226): > 100 µM (inactive)
GI50 (NCI-H522): > 100 µM (inactive)
GI50 (OVCAR-3): > 100 µM (inactive)
GI50 (OVCAR-8): > 100 µM (inactive)
GI50 (SR): > 100 µM (inactive)
GI50 (UACC-257): > 100 µM (inactive)
GI50 (UO-31): > 100 µM (inactive)

CC1=Nn2c(nnc2-c2ccc(Cl)cc2)NC(C)(C)C1
GI50 (A498): > 100 µM (inactive)
GI50 (A549): > 100 µM (inactive)
GI50 (COLO 205): > 100 µM (inactive)
GI50 (EKVX): > 100 µM (inactive)
GI50 (HCT-15): > 100 µM
GI50 (HOP-62): > 100 µM (inactive)
GI50 (K562): > 100 µM (inactive)
GI50 (M14): > 100 µM (inactive)
GI50 (NCI-H226): > 100 µM (inactive)
GI50 (NCI-H522): > 100 µM (inactive)
GI50 (OVCAR-3): > 100 µM (inactive)
GI50 (OVCAR-5): > 100 µM (inactive)
GI50 (UACC-257): > 100 µM (inactive)
GI50 (UO-31): > 100 µM (inactive)

[O-][S+]1c2ccccc2N=C(c2ccc3ccccc3c2)CC1C1=CC=CCC1 (stereo unspecified)
GI50 (A549): 26.3 µM (inactive)
GI50 (COLO 205): 20.5 µM (inactive)
GI50 (EKVX): 22.7 µM (inactive)
GI50 (HCT-15): 16.7 µM
GI50 (HOP-62): 19.1 µM (inactive)
GI50 (K562): 10.3 µM (inactive)
GI50 (M14): 18.7 µM (inactive)
GI50 (NCI-H226): 19.4 µM (inactive)
GI50 (NCI-H522): 16.9 µM (inactive)
GI50 (OVCAR-3): 16.9 µM (inactive)
GI50 (OVCAR-5): 18.9 µM (inactive)
GI50 (OVCAR-8): 20.3 µM (inactive)
GI50 (UACC-257): 18.3 µM (inactive)
GI50 (UO-31): 13.8 µM (inactive)

CC1=C(C(=O)Nc2ccccc2)C(c2ccccc2)C(C(=O)Nc2ccccc2)=C(C)N1
GI50 (A498): 86.1 µM (inactive)
GI50 (A549): 35.2 µM (inactive)
GI50 (COLO 205): 38.4 µM (inactive)
GI50 (EKVX): 76.4 µM (inactive)
GI50 (HCT-15): 23.4 µM
GI50 (HOP-62): > 100 µM (inactive)
GI50 (M14): 31.5 µM (inactive)
GI50 (NCI-H226): > 100 µM (inactive)
GI50 (NCI-H522): 16.3 µM (inactive)
GI50 (OVCAR-3): 40.4 µM (inactive)
GI50 (OVCAR-5): > 100 µM (inactive)
GI50 (OVCAR-8): 75 µM (inactive)
GI50 (UACC-257): 36.1 µM (inactive)
GI50 (UO-31): 71.6 µM (inactive)

Cc1cc(C)c(-c2noc(-c3ccc(Cl)cc3)c2C2=NCCCN2)c(C)c1
GI50 (A549): 24 µM (inactive)
GI50 (COLO 205): 13.8 µM (inactive)
GI50 (EKVX): 18 µM (inactive)
GI50 (HCT-15): 18.5 µM
GI50 (HOP-62): 21.8 µM (inactive)
GI50 (K562): 14.8 µM (inactive)
GI50 (M14): 2.47 µM (inactive)
GI50 (NCI-H226): 29.9 µM (inactive)
GI50 (NCI-H522): 20 µM (inactive)
GI50 (OVCAR-3): 28 µM (inactive)
GI50 (OVCAR-5): 31.6 µM (inactive)
GI50 (OVCAR-8): 26.7 µM (inactive)
GI50 (SR): 26.5 µM (inactive)
GI50 (UACC-257): 15.1 µM (inactive)
GI50 (UO-31): 16.2 µM (inactive)

CC(C)(C)c1cc(C(O)(C(F)(F)F)C(F)(F)F)c2c(c1)C(C(F)(F)F)(C(F)(F)F)OC(C)(C(C)(C)C)N2 (stereo unspecified)
GI50 (A549): 3.59 µM (inactive)
GI50 (COLO 205): 2.05 µM (inactive)
GI50 (EKVX): 3.94 µM (inactive)
GI50 (HCT-15): 3.83 µM
GI50 (K562): 2.9 µM (inactive)
GI50 (M14): 0.653 µM (active)
GI50 (NCI-H226): 2.27 µM (inactive)
GI50 (NCI-H522): 1.82 µM (inactive)
GI50 (OVCAR-3): 0.776 µM (active)
GI50 (OVCAR-5): 7.13 µM (inactive)
GI50 (OVCAR-8): 4.9 µM (inactive)
GI50 (SR): 2.82 µM (inactive)
GI50 (UACC-257): 5.19 µM (inactive)
GI50 (UO-31): 2.97 µM (inactive)

O=C1CCCCCCC2=C1C(Sc1ccccc1)CC2 (stereo unspecified)
GI50 (A549): 45.5 µM (inactive)
GI50 (COLO 205): 62.8 µM (inactive)
GI50 (EKVX): 20.5 µM (inactive)
GI50 (HCT-15): 31.7 µM
GI50 (HOP-62): > 100 µM (inactive)
GI50 (K562): 27.2 µM (inactive)
GI50 (M14): 45.9 µM (inactive)
GI50 (NCI-H226): 29.5 µM (inactive)
GI50 (NCI-H522): 18.5 µM (inactive)
GI50 (OVCAR-8): 23 µM (inactive)
GI50 (SR): 18.2 µM (inactive)
GI50 (UACC-257): 43.2 µM (inactive)
GI50 (UO-31): 18.8 µM (inactive)

CN1C(=O)CC2(C)c3cc(O)cc(Br)c3N(C)C12 (stereo unspecified)
GI50 (A498): > 100 µM (inactive)
GI50 (A549): > 100 µM (inactive)
GI50 (COLO 205): > 100 µM (inactive)
GI50 (EKVX): > 100 µM (inactive)
GI50 (HCT-15): > 100 µM
GI50 (HOP-62): > 100 µM (inactive)
GI50 (K562): > 100 µM (inactive)
GI50 (M14): > 100 µM (inactive)
GI50 (NCI-H226): > 100 µM (inactive)
GI50 (NCI-H522): > 100 µM (inactive)
GI50 (OVCAR-3): > 100 µM (inactive)
GI50 (OVCAR-5): > 100 µM (inactive)
GI50 (OVCAR-8): > 100 µM (inactive)
GI50 (UACC-257): > 100 µM (inactive)
GI50 (UO-31): 57.7 µM (inactive)

CC(=O)Nc1ccccc1S(=O)(=O)c1ccccc1
GI50 (A498): > 100 µM (inactive)
GI50 (A549): > 100 µM (inactive)
GI50 (COLO 205): > 100 µM (inactive)
GI50 (EKVX): > 100 µM (inactive)
GI50 (HCT-15): > 100 µM
GI50 (HOP-62): > 100 µM (inactive)
GI50 (K562): > 100 µM (inactive)
GI50 (M14): > 100 µM (inactive)
GI50 (NCI-H226): > 100 µM (inactive)
GI50 (NCI-H522): > 100 µM (inactive)
GI50 (OVCAR-3): > 100 µM (inactive)
GI50 (OVCAR-5): 0.0409 µM (active)
GI50 (OVCAR-8): > 100 µM (inactive)
GI50 (UACC-257): > 100 µM (inactive)
GI50 (UO-31): > 100 µM (inactive)

Cc1ccc(NC(=O)C2C(=O)N(c3ccc(C)cc3)C(=O)/C2=N\NC(N)=S)cc1 (stereo unspecified)
GI50 (A498): > 100 µM (inactive)
GI50 (COLO 205): > 100 µM (inactive)
GI50 (EKVX): > 100 µM (inactive)
GI50 (HCT-15): > 100 µM
GI50 (HOP-62): > 100 µM (inactive)
GI50 (K562): > 100 µM (inactive)
GI50 (M14): > 100 µM (inactive)
GI50 (NCI-H226): > 100 µM (inactive)
GI50 (NCI-H522): > 100 µM (inactive)
GI50 (OVCAR-3): > 100 µM (inactive)
GI50 (OVCAR-5): > 100 µM (inactive)
GI50 (OVCAR-8): > 100 µM (inactive)
GI50 (UACC-257): > 100 µM (inactive)
GI50 (UO-31): > 100 µM (inactive)

CCCCCCCCCCCCC(Br)C(=O)SCCNC(=O)CCNC(=O)[C@@H](O)C(C)(C)COP(=O)(O)OP(=O)(O)OCC1OC(n2cnc3c(N)ncnc32)C(O)C1OP(=O)(O)O (stereo partly specified)
GI50 (A498): > 56.5 µM (inactive)
GI50 (A549): > 56.5 µM (inactive)
GI50 (COLO 205): > 56.5 µM (inactive)
GI50 (EKVX): > 56.5 µM (inactive)
GI50 (HCT-15): > 56.5 µM
GI50 (HOP-62): > 56.5 µM (inactive)
GI50 (M14): > 56.5 µM (inactive)
GI50 (NCI-H226): > 56.5 µM (inactive)
GI50 (NCI-H522): > 56.5 µM (inactive)
GI50 (OVCAR-3): > 56.5 µM (inactive)
GI50 (OVCAR-5): > 56.5 µM (inactive)
GI50 (OVCAR-8): 54.3 µM (inactive)
GI50 (UACC-257): 14.6 µM (inactive)
GI50 (UO-31): > 56.5 µM (inactive)

CC12CO[C@@](C)(CC(S(=O)(=O)c3ccccc3)C1)O2 (stereo partly specified)
GI50 (A549): > 100 µM (inactive)
GI50 (COLO 205): > 100 µM (inactive)
GI50 (EKVX): > 100 µM (inactive)
GI50 (HCT-15): > 100 µM
GI50 (HOP-62): > 100 µM (inactive)
GI50 (K562): > 100 µM (inactive)
GI50 (M14): > 100 µM (inactive)
GI50 (NCI-H522): > 100 µM (inactive)
GI50 (OVCAR-3): > 100 µM (inactive)
GI50 (OVCAR-5): > 100 µM (inactive)
GI50 (OVCAR-8): > 100 µM (inactive)
GI50 (SR): > 100 µM (inactive)
GI50 (UACC-257): > 100 µM (inactive)
GI50 (UO-31): > 100 µM (inactive)
